According to EP3087981A1, “HYGROPHORON B12 FOR USE IN THE TREATMENT OF A MYCOSIS” (Leibniz-Institut für Pflanzenbiochemie (IPB), priority 2015, dated 2016):
Values after ≈ are worked out from the molar mass of the structure shown.

Test system: Malassezia pachydermatis Isolat CBS 1879
Experiment: Dilution assay in 96-well microtiter plates, minimal inhibitory concentration (MHK)
Type: cell-based
Details: CBS1879, RPMI 1640 Medium, 2 bis 4 Tage bei 37 °C, visual evaluation, read-out: minimale Hemmkonzentration (MHK)
Source text: Einer besonders bevorzugten Ausführungsform der Erfindung entsprechend wird Hygrophoron B^12 oder dessen Enantiomer, Epimere oder Diastereomere zur Verwendung bei der Behandlung einer Mykose eingesetzt, die durch Malassezia pachydermatis ausgelöst wird. Die Evaluierung der biologischen Eigenschaften des erfindungsgemäß verwendeten Hygrophorons B^12 ergab, dass Hygrophoron B^12 stark antimykotische Eigenschaften aufweist. Insbesondere weist Hygrophoron B^12 starke Aktivität gegen Malassezia pachydermatis auf. Figur 1 zeigt eine überraschend starke in vitro Aktivität des erfindungsgemäß verwendeten Hygrophorons B^12 gegen Malassezia pachydermatis, wobei die Aktivität mit dem Arzneistoff Terbinafin vergleichbar ist. Terbinafin ist ein synthetisches Antimykotikum und seit vielen Jahren das meist verordnete Präparat. In Figur 1 bezeichnet MHK die minimale HemmKonzentration (MHK). Sie ist die niedrigste Konzentration einer Substanz, bei der die Vermehrung von Mikroorganismen mit bloßem Auge nicht wahrgenommen werden kann. Die MHK wird mit einem sogenannten Titerverfahren bestimmt. Dabei wird die Konzentration von einem Wirkstoff (hier Terbinafin und Hygrophoron B^12) bestimmt, der das Wachstum von Malassezia pachydermatis gerade noch hemmt. Die MHK wird in Mikrogramm pro Milliliter (µg/ml) angegeben. […]

## CCCCCCCCCCCC[C@@H](O)[C@@]1(O)C(=O)C=C[C@@H]1O [Hygrophoron B^12, (+)-cis-4,5-Dihydroxy-5-(1-hydroxytridecyl)cyclopent-2-enon]
  MIC: 0.17 µg/mL (≈ 0.544 µM)
